Laboratory results as given in patent publication US12612412B2, “Antiviral heterocyclic compounds” (Enanta Pharmaceuticals, Inc., priority 2021, dated 2026).
pEC50: −log10 of the molar value.

Tested on: genotype A, "Long" strain RSV
Test: RSV-A assay (CPE protection in Hep-2 cells, ATPlite readout)
Format: cell-based, Human respiratory syncytial virus (HRSV)
Conditions: human respiratory syncytial virus, RSV-A Long strain, MOI 0.1, CPE protection, read-out: Human RSV-A (“Long”) EC50
In short: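 In this cytopathic-effect protection format, infected Hep-2 cultures (MOI 0.1) are exposed to compound for 5 days. Surviving cell ATP is quantified with ATPlite, and EC50 is determined.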

pEC50	SMILES
> 6.70	COc1cc(C(=O)NC[C@](O)(c2cc3c(c(-c4ccc5c(c4)OC(F)(F)O5)n2)OC[C@]3(C)C(N)=O)C2CC2)cc2cc(Br)c(C)nc12 [Example 1130]
< 6.70	COc1cc(C(=O)NCC(O)(c2cc3c(c(C4=CCOCC4)n2)OC[C@]3(C)C(N)=O)C(F)(F)F)cc2cn(C3CC3)nc12 (some centres unmarked) [Example 1240]
> 6.70	COc1cc(C(=O)NC[C@](O)(c2cc3c(c(-c4ccc(Cl)c(F)c4Cl)n2)OC[C@]3(C)C(N)=O)C(F)(F)F)cc2cn(C3CC3)nc12 [Example 1260]
> 6.70	Cc1cc2cc(C(=O)NC[C@](O)(c3cc4c(c(-c5cccc(F)c5Cl)n3)OC[C@]4(C)C(N)=O)C3CC3)cc(OC3CC3)c2nc1Cl [Example 1078]
> 6.70	COc1cc(C(=O)NC[C@](O)(c2cc3c(c(-c4ccc(F)cc4)n2)OC[C@]3(C)C(=O)NC2COC2)C(F)(F)F)cc2cn(C3CC3)nc12 [Example 1174]
< 6.70	COc1cc(C(=O)NC[C@@](O)(c2cc3c(c(-c4ccccc4F)n2)OC[C@]3(C)C(N)=O)C(F)(F)F)cc2cn(C3CC3)nc12 [Example 910]
< 6.70	COc1cc(C(=O)NC[C@](O)(c2cc3c(c(-c4cn(C)nc4C(F)(F)F)n2)OC[C@]3(C)C(N)=O)C(F)(F)F)cc2cn(C3CC3)nc12 [Example 904]
> 6.70	COc1cc(C(=O)NC[C@](O)(c2cc3c(c(-c4cc(F)cc(F)c4)n2)OC[C@]3(C)C(N)=O)C2CC2)cc2cn(C3CC3)nc12 [Example 1276]
> 6.70	COc1cc(C(=O)NC[C@](O)(c2cc3c(c(-c4cc(F)c(Cl)cc4Cl)n2)OC[C@]3(C)C(N)=O)C(F)(F)F)cc2cn(C3CC3)nc12 [Example 1265]
> 6.70	[2H]C([2H])([2H])c1nc2c(OC)cc(C(=O)NC[C@](O)(c3cc4c(c(-c5cc(Cl)c(F)cc5F)n3)OC[C@]4(C)C(N)=O)C3CC3)cc2cc1Cl [Example 1287]
> 6.70	C[C@]1(C(N)=O)COc2c1cc([C@@](O)(CNC(=O)c1cc(OC(F)F)c3nn(C4CC4)cc3c1)C1CC1)nc2-c1cc(Cl)c(F)cc1F [Example 1212]
> 6.70	COc1cc(C(=O)NC[C@](O)(c2cc3c(c(-c4ccc5c(c4)OC(F)(F)C5(F)F)n2)OC[C@]3(C)C(N)=O)C2CC2)cc2cn(C3CC3)nc12 [Example 1238]
> 6.70	C[C@]1(C(N)=O)COc2c1cc([C@@](O)(CNC(=O)c1cc(OC3CC3)c3nn(C(F)F)cc3c1)C1CC1)nc2-c1cccc(Cl)c1F [Example 1198]

Same assay, conditions: human respiratory syncytial virus, genotype A “Long” strain RSV, MOI 0.1, CPE protection, read-out: Human RSV-A (“Long”)

SMILES	pEC50
COc1cc(C(=O)NC[C@](O)(c2cc3c(c(-c4ccc(F)cc4)n2)OC[C@]3(C(N)=O)C2CC2)C(F)(F)F)cc2cccnc12 [Example 269]	< 6.70
Cc1ccc2cc(C(=O)NC[C@](O)(c3cc4c(c(-c5ccc(F)c(Cl)c5)n3)OC[C@]4(C)C(N)=O)C(F)(F)F)cc(N3CCCC3=O)c2n1 [Example 39]	< 6.70
NC(=O)[C@@]1(CF)COc2c1cc([C@@](O)(CNC(=O)c1cc(OC3CC3)c3ncccc3c1)C(F)(F)F)nc2-c1ccc(F)cc1 [Example 297]	> 6.70
NC(=O)[C@]1(C2CC2)COc2c1cc([C@@](O)(CNC(=O)c1cc(OC3CC3)c3ncccc3c1)C(F)(F)F)nc2-c1ccc(F)cc1 [Example 271]	< 6.70
COc1cc(C(=O)NC[C@](O)(c2cc3c(c(-c4ccc(F)cc4)n2)OC[C@@]3(C(N)=O)C2CC2)C(F)(F)F)cc2cc(Cl)c(C)nc12 [Example 274]	> 6.70
CCS(=O)(=O)c1ccc(-c2nc([C@@](O)(CNC(=O)c3cc(F)c4nc(N)sc4c3)C(F)(F)F)cc3c2OC[C@]3(C)C(N)=O)cc1 [Example 311]	< 6.70
COc1cc(C(=O)NC[C@](O)(c2cc3c(c(-c4ccc(F)cc4)n2)OC[C@]3(C)C(N)=O)C(F)(F)F)nc2cc(C3CC3)nn12 [Example 192]	< 6.70
CN[C@H](C)COc1ccc(C(=O)NC[C@](O)(c2cc3c(c(-c4ccc(F)cc4)n2)OC[C@]3(C)C(N)=O)C(F)(F)F)cc1OC [Example 151]	< 6.70
Cn1cc(C(=O)NC[C@](O)(c2cc3c(c(-c4ccc(F)cc4)n2)OC[C@]3(C)C(N)=O)C(F)(F)F)c(-c2ccccc2)n1 [Example 445]	< 6.70
COc1cc(C(=O)NC[C@](O)(c2cc3c(c(-c4ccc(F)cc4)n2)OC[C@]3(C)C(N)=O)C2CC2)cc2cn(C3CC3)nc12 [Example 302]	> 6.70
COc1cc(C(=O)NC[C@](O)(c2cc3c(c(-c4ccc(F)cc4)n2)OC[C@]3(C(N)=O)C2CC2)C(F)(F)F)ccc1OC1CC1 [Example 277]	< 6.70
CC[C@@]1(C(N)=O)COc2c1cc([C@@](O)(CNC(=O)c1cc(OC)c3nn(C(F)F)cc3c1)C(F)(F)F)nc2-c1ccc(F)cc1 [Example 243]	< 6.70
C[C@]1(C(N)=O)COc2c1cc([C@@](O)(CNC(=O)c1cnn(-c3ccccc3)c1)C(F)(F)F)nc2-c1ccc(F)cc1 [Example 444]	> 6.70
C[C@]1(C(N)=O)COc2c1cc([C@@](O)(CNC(=O)c1cnn(-c3ccccc3F)c1)C(F)(F)F)nc2-c1ccc(F)cc1 [Example 454]	> 6.70
CC[C@@]1(C(N)=O)COc2c1cc([C@@](O)(CNC(=O)c1cc(OC)c3ncccc3c1)C(F)(F)F)nc2-c1ccc(F)cc1 [Example 246]	< 6.70
C[C@]1(C(N)=O)COc2c1cc([C@@](O)(CNC(=O)c1csc(-c3ccccc3)n1)C(F)(F)F)nc2-c1ccc(F)cc1 [Example 482]	< 6.70
COc1cccc(-n2ccc(C(=O)NC[C@](O)(c3cc4c(c(-c5ccc(F)cc5)n3)OC[C@]4(C)C(N)=O)C(F)(F)F)n2)c1 [Example 213]	< 6.70
COc1cc(C(=O)NC[C@](O)(c2cc3c(c(-c4cnc(C#N)c(Cl)c4)n2)OC[C@]3(C)C(N)=O)C(F)(F)F)cc2cc(Cl)c(C)nc12 [Example 584]	> 6.70
C[C@]1(C(N)=O)COc2c1cc([C@@](O)(CNC(=O)c1cc(Br)c3[nH]c(C4CC4)nc3c1)C(F)(F)F)nc2-c1ccc(F)cc1 [Example 204]	> 6.70

Next, values leading:

pEC50	SMILES
< 6.70	C[C@]1(C(N)=O)COc2c1cc([C@@](O)(CNC(=O)c1cc3ccccc3s1)C(F)(F)F)nc2-c1ccc(F)cc1 [Example 368]
> 6.70	C[C@]1(C(N)=O)COc2c1cc([C@@](O)(CNC(=O)c1ccc3[nH]c(=O)oc3c1)C(F)(F)F)nc2-c1ccc(F)cc1 [Example 318]
> 6.70	C[C@]1(C(N)=O)COc2c1cc([C@@](O)(CNC(=O)c1cccc3cc[nH]c13)C(F)(F)F)nc2-c1ccc(F)cc1 [Example 366]
< 6.70	C[C@]1(C(N)=O)COc2c1cc([C@@](O)(CNC(=O)c1cc3c(cc1Cl)NC(=O)C3)C(F)(F)F)nc2-c1ccc(F)cc1 [Example 341]
> 6.70	Cc1c(C(=O)NC[C@](O)(c2cc3c(c(-c4ccc(F)cc4)n2)OC[C@]3(C)C(N)=O)C(F)(F)F)ccc2[nH]ncc12 [Example 101]
< 6.70	CCn1ncc2cc(C(=O)NC[C@](O)(c3cc4c(c(-c5ccc(F)cc5)n3)OC[C@]4(C)C(N)=O)C(F)(F)F)cc(Cl)c21 [Example 172]
< 6.70	Cc1ccn2c(C(=O)NC[C@](O)(c3cc4c(c(-c5ccc(F)cc5)n3)OC[C@]4(C)C(N)=O)C(F)(F)F)c(C)nc2c1 [Example 361]
< 6.70	Cc1cc(C(=O)NC[C@](O)(c2cc3c(c(-c4ccc(F)cc4)n2)OC[C@]3(C)C(N)=O)C(F)(F)F)c2ccccc2n1 [Example 432]
< 6.70	Cn1cccc1C(=O)NC[C@](O)(c1cc2c(c(-c3ccc(F)cc3)n1)OC[C@]2(C)C(N)=O)C(F)(F)F [Example 425]
> 6.70	CC(C)c1cc(C(=O)NC[C@](O)(c2cc3c(c(-c4ccc(F)cc4)n2)OC[C@]3(C)C(N)=O)C(F)(F)F)cc2cn[nH]c12 [Example 123]
< 6.70	C[C@]1(C(N)=O)COc2c1cc([C@@](O)(CNC(=O)c1c[nH]c3nccnc13)C(F)(F)F)nc2-c1ccc(F)cc1 [Example 351]
> 6.70	C[C@]1(C(N)=O)COc2c1cc([C@@](O)(CNC(=O)c1cc(F)c3[nH]c(C4CC4)nc3c1)C(F)(F)F)nc2-c1ccc(F)cc1 [Example 93]
< 6.70	C[C@]1(C(N)=O)COc2c1cc([C@@](O)(CNC(=O)c1c[nH]nc1-c1ccccc1)C(F)(F)F)nc2-c1ccc(F)cc1 [Example 446]
> 6.70	COc1cc2cc(C(=O)NC[C@](O)(c3cc4c(c(-c5ccc(F)cc5)n3)OC[C@]4(C)C(N)=O)C(F)(F)F)ccc2nc1Cl [Example 325]
> 6.70	C[C@]1(C(N)=O)COc2c1cc([C@@](O)(CNC(=O)c1cc3c(OC(F)F)cccc3[nH]1)C(F)(F)F)nc2-c1ccc(F)cc1 [Example 211]
< 6.70	C[C@]1(C(N)=O)COc2c1cc([C@@](O)(CNC(=O)c1ccc3nccn3n1)C(F)(F)F)nc2-c1ccc(F)cc1 [Example 417]
< 6.70	COc1ncccc1C(=O)NC[C@](O)(c1cc2c(c(-c3ccc(F)cc3)n1)OC[C@]2(C)C(N)=O)C(F)(F)F [Example 428]
> 6.70	COc1cc(C(=O)NC[C@](O)(c2cc3c(c(-c4ccc(F)cc4)n2)OCC3(C(N)=O)C(F)F)C(F)(F)F)cc2cc(C(F)(F)F)cnc12 (some centres unmarked) [Example 257]
< 6.70	C[C@]1(C(N)=O)COc2c1cc([C@@](O)(CNC(=O)c1c[nH]c3ncc(C(F)(F)F)cc13)C(F)(F)F)nc2-c1ccc(F)cc1 [Example 347]
> 6.70	C[C@]1(C(N)=O)COc2c1cc([C@@](O)(CNC(=O)c1ccc3nc(C(N)=O)sc3c1)C(F)(F)F)nc2-c1ccc(F)cc1 [Example 130]
< 6.70	C[C@]1(C(N)=O)COc2c1cc([C@@](O)(CNC(=O)c1cc3cccc(F)c3s1)C(F)(F)F)nc2-c1ccc(F)cc1 [Example 379]
> 6.70	C[C@]1(C(N)=O)COc2c1cc([C@@](O)(CNC(=O)c1cnc3nc(C4CC4)sc3c1)C(F)(F)F)nc2-c1ccc(F)cc1 [Example 21]
< 6.70	C[C@]1(C(N)=O)COc2c1cc([C@@](O)(CNC(=O)c1ccccn1)C(F)(F)F)nc2-c1ccc(F)cc1 [Example 421]
< 6.70	C[C@]1(C(N)=O)COc2c1cc([C@@](O)(CNC(=O)c1cc3cc(F)ccc3s1)C(F)(F)F)nc2-c1ccc(F)cc1 [Example 434]
